According to PMC13089524, “Development of SYK NanoBRET cellular target engagement assays for gain–of–function variants” (Frontiers in chemical biology, 2024):
Blank lines part the entries; values can stand above or below the compound they belong to.

Columns and labels:
[1] = system: pSYK(Y525/526) in SW480 cells stably expressing SYK(S550Y); conditions: ref Wang et al. (2021); cited from earlier work
TNK1 = conditions: only off-target kinase bound; ref Sharman et al., 2015; Cooper et al., 2023; cited from earlier work
SYK(S550F)-NL [2] = molecular target: T1, SYK(S550F)-NL (Homo sapiens, UniProt P43405, S550F); experiment: NanoBRET cellular target engagement assay in intact live HEK293 cells, SYK(S550F)-NL; assay type: cell-based
T1 construct: host or cells: HEK293
Protocol: (§1) NL orientations used in the respective assays are indicated. […] Plates were incubated for 25 min at room temperature if digitonin was added or for 2 h at 37°C in 5% CO2 for the intact cell NanoBRET assay. […] For intact live cells in a 96-well plate, the 3X stock solution was prepared with 30 μL of NanoBRET NanoGlo substrate, 10 μL of extracellular NanoLuc inhibitor, and 4,960 μL of Opti-MEM without phenol red. For digitonin permeabilized live cells in a 96-well plate, the 3X stock solution was prepared with 30 μL of NanoBRET NanoGlo substrate and 4,970 μL of Opti-MEM without phenol red. Raw milliBRET units (mBU) were read on a GloMax Discover system (Promega) with a donor emission wavelength of 450 nm and an acceptor emission wavelength of 600 nm. mBU were calculated by dividing the acceptor emission values (600 nm) by the donor emission values (450 nm). For NanoBRET studies with SYK, background corrected mBU were calculated by subtracting the no tracer wells from the tracer-containing wells and multiplying by 1,000.
(§2) MRL-SYKi was used to compete away the NanoBRET signal produced with tracer 8. […] Tracer 8 was prepared in DMSO and DMEM without phenol red in 11-point dose-response format with 3 μM as the top concentration, with a final assay plate concentration of 1% DMSO. 10X stock solutions of MRL-SYKi were prepared from 10 mM DMSO stock solution with room temperature Opti-MEM without phenol red, for final assay plate concentrations of 10 μM. 10 μL of 8 (10X) was added to each well, with the exception of the no tracer control wells, and 10 μL of 10X solutions of MRL-SYKi was added to wells for tracer competition. One biological replicate was plotted in GraphPad Prism with [inhibitor] vs response (three parameters).
(§3) MRL-SYKi was tested in 11-point dose–response format with a top concentration of 10 μM. […] The final assay plate concentrations included 1% DMSO. 5 μL of 8 (20X) was added to each well, except the no tracer control wells, and 10 μL of 10X threefold diluted solutions of MRL-SYKi was added to wells. Two biological replicates were plotted in GraphPad Prism with log[inhibitor] vs response (three parameters) with the error bars indicating standard deviation.
(§4) Compounds were tested in 11-point dose–response format with a top concentration of 10 μM. Data are reported as IC50 ± standard error mean (SEM). One biological replicate was plotted in GraphPad Prism with log[inhibitor] vs response (three parameters), the three IC50’s were averaged and the SEM was calculated.

JAK1 = conditions: ref Ma et al., 2015; Guo et al., 2017; cited from earlier work
SYK(P342T)-NL [3] = molecular target: T2, SYK(P342T)-NL (Homo sapiens, UniProt P43405, P342T); experiment: NanoBRET cellular target engagement assay in intact live HEK293 cells, SYK(P342T)-NL; assay type: cell-based
T2 construct: host or cells: HEK293
Protocol: as §1, §2, §3, §4

SYK(A353T)-NL = molecular target: T3, SYK(A353T)-NL (Homo sapiens, UniProt P43405, A353T); experiment: NanoBRET assay in digitonin permeabilized HEK293 cells, SYK(A353T)-NL; assay type: cell-based; conditions: relative to MRL-SYKi (20 μM) treated cells, single experiment, read-out: EC50 of tracer, SYK(variant)-NL A353T
T3 construct: host or cells: HEK293
Protocol: (§5) We performed NanoBRET tracer optimization to determine if the SYK tracers could effectively generate a BRET signal. […] To enable the NanoBRET assay using tracer 8 with cells permeabilized by digitonin, a tracer dose–response study was performed for each SYK(GoF) variant and SYK(WT) (Figure 3A), followed by tracer titration experiments (Figure 3B; Supplementary Figure S3). […] Initially, we determined the EC50 of tracer 8 for each SYK(GoF) variant and SYK(WT). […] Plates were incubated for 25 min at room temperature if digitonin was added or for 2 h at 37°C in 5% CO2 for the intact cell NanoBRET assay. […] For intact live cells in a 96-well plate, the 3X stock solution was prepared with 30 μL of NanoBRET NanoGlo substrate, 10 μL of extracellular NanoLuc inhibitor, and 4,960 μL of Opti-MEM without phenol red. […] Raw milliBRET units (mBU) were read on a GloMax Discover system (Promega) with a donor emission wavelength of 450 nm and an acceptor emission wavelength of 600 nm. mBU were calculated by dividing the acceptor emission values (600 nm) by the donor emission values (450 nm). For NanoBRET studies with SYK, background corrected mBU were calculated by subtracting the no tracer wells from the tracer-containing wells and multiplying by 1,000. […]

SYK(WT)-NL = molecular target: T4, SYK(WT)-NL (Homo sapiens, UniProt P43405); experiment: NanoBRET assay in digitonin permeabilized HEK293 cells, SYK(WT)-NL; assay type: cell-based
T4 construct: SYK tracers enable BRET with full-length SYK(WT) after digitonin permeabilization; host or cells: HEK293
Protocol: We performed NanoBRET tracer optimization to determine if the SYK tracers could effectively generate a BRET signal. […] To enable the NanoBRET assay using tracer 8 with cells permeabilized by digitonin, a tracer dose–response study was performed for each SYK(GoF) variant and SYK(WT) (Figure 3A), followed by tracer titration experiments (Figure 3B; Supplementary Figure S3). […] Initially, we determined the EC50 of tracer 8 for each SYK(GoF) variant and SYK(WT). […] Plates were incubated for 25 min at room temperature if digitonin was added or for 2 h at 37°C in 5% CO2 for the intact cell NanoBRET assay. […] For intact live cells in a 96-well plate, the 3X stock solution was prepared with 30 μL of NanoBRET NanoGlo substrate, 10 μL of extracellular NanoLuc inhibitor, and 4,960 μL of Opti-MEM without phenol red. For digitonin permeabilized live cells in a 96-well plate, the 3X stock solution was prepared with 30 μL of NanoBRET NanoGlo substrate and 4,970 μL of Opti-MEM without phenol red. Raw milliBRET units (mBU) were read on a GloMax Discover system (Promega) with a donor emission wavelength of 450 nm and an acceptor emission wavelength of 600 nm. mBU were calculated by dividing the acceptor emission values (600 nm) by the donor emission values (450 nm). For NanoBRET studies with SYK, background corrected mBU were calculated by subtracting the no tracer wells from the tracer-containing wells and multiplying by 1,000.
HEK293 cells were transfected with constructs of SYK(WT) or SYK(KD) tagged with NL on the C- or N-terminus and SYK GoF variants tagged with NL on the C-terminus. Tracer 8 (20X) was prepared from a 400 μM stock solution in DMSO with tracer dilution buffer (Promega, #N291B) and 20% DMSO, with a final assay plate concentration of 1% DMSO. 5 μL of 8 (20X) was added to each well, with exception of the no tracer control wells, with final plate concentrations of 0.5, 1, and 2 μM. 10 μL of digitonin (Fisher, 10X, 500 μg/mL) was added to specific wells to permeabilize the cells. The 10X digitonin stock was prepared by diluting a 40X DMSO solution of digitonin with room temperature Opti-MEM without phenol red, for a final assay plate concentration of 1% DMSO. SYK inhibitor stock solutions of MRL-SYKi (10X) were prepared from 10 mM DMSO stock solutions with room temperature Opti-MEM without phenol red, for final assay plate concentrations of 10 μM. Plates were incubated for 25 min at room temperature if digitonin was added or for 2 h at 37°C in 5% CO2 for the intact cell NanoBRET assay. Two technical replicates were plotted in a bar chart with the standard deviation represented as error bars on Graphpad Prism.

SYK(S550Y)-NL [4] = molecular target: T5, SYK(S550Y)-NL (Homo sapiens, UniProt P43405, S550Y); experiment: NanoBRET cellular target engagement assay in intact live HEK293 cells, SYK(S550Y)-NL; assay type: cell-based; conditions: intact cells, ± 10 μM MRL-SYKi, single experiment; read-out: cellular EC50 of the tracer, SYK(S550Y)-NL
T5 construct: host or cells: HEK293
Protocol: as §1, §2, §3, §4

SYK = molecular target: T6, SYK (Homo sapiens, UniProt P43405); experiment: Eurofins DiscoverX SYK enzymatic radiometric assay; assay type: biochemical
T6 construct: purchased Eurofins DiscoverX (contract assay service)
Excerpt: Eurofins kinase enzymatic radiometric assays were executed at the Km value for ATP in dose–response (9-pt curve) format for SYK, included in Table 1 as enzymatic IC50 values.

SYK(WT) = molecular target: T7, SYK(WT) (Homo sapiens, UniProt P43405); experiment: PhosphoSens SOX peptide kinase activity assay, SYK(WT); assay type: biochemical; conditions: dose-response, purified protein
T7 construct: Full-length human SYK(WT) DNA was custom synthesized (GenScript); 6His (N, cleaved yes); GST (N, cleaved yes); made in house; host or cells: Sf9 insect cells (baculovirus, pFastbac1)
Excerpt: Full-length human SYK(WT) DNA was custom synthesized (GenScript) as a codon optimized form for expression in Sf9 cells. N-terminal 6His and GST tags were introduced, followed by a TEV protease cleavage site, and cloned into pFastbac1. SYK(S550F) and SYK(P342T) were generated by site-directed mutagenesis of SYK(WT) using the NEB Q5 site directed mutagenesis kit. Plasmids were transformed into E. coli DH10Bac for bacmid generation. Recombinant bacmid DNA was used to transfect Sf9 cells to generate viral stocks. For large-scale protein production, 2 L of Sf9 cells at 2 × 10^6 cells/ml were infected with a P2 virus stock and allowed to incubate with shaking for 3 days at 27°C. Harvested cells were lysed in 200 mL lysis buffer containing 50 mM HEPES (pH 7.5), 500 mM NaCl, 10 mM imidazole, 10% glycerol, 1 mM TCEP. […]
SYK kinase activity was evaluated using a continuous kinase assay using a PhosphoSens (AssayQuant) SOX peptide, according to the protocol provided, with modifications. […] Fluorescence readings were taken at 30-s intervals for a duration ranging from 30 min to an hour, using a PheraStar FX device set to kinetic mode, employing an appropriate optics module (FI 350 460). The data was represented as a plot of relative fluorescence over time, deducting the fluorescence of control reactions (which lacked kinase) from the fluorescence recorded after introducing the kinase. […]

SYK(P342T)-NL [5] = molecular target: T2, SYK(P342T)-NL; experiment: NanoBRET assay in digitonin permeabilized HEK293 cells, SYK(P342T)-NL; assay type: cell-based; conditions: relative to MRL-SYKi (20 μM) treated cells, single experiment, read-out: EC50 of tracer, SYK(variant)-NL P342T
Protocol: as §5

SYK(M450I)-NL = molecular target: T8, SYK(M450I)-NL (Homo sapiens, UniProt P43405, M450I); experiment: NanoBRET assay in digitonin permeabilized HEK293 cells, SYK(M450I)-NL; assay type: cell-based; conditions: relative to MRL-SYKi (20 μM) treated cells, single experiment, read-out: EC50 of tracer, SYK(variant)-NL M450I
T8 construct: host or cells: HEK293
Protocol: as §5

SYK(S550F)-NL [6] = molecular target: T1, SYK(S550F)-NL; experiment: NanoBRET assay in digitonin permeabilized HEK293 cells, SYK(S550F)-NL; assay type: cell-based; conditions: relative to MRL-SYKi (20 μM) treated cells, single experiment, read-out: EC50 of tracer, SYK(variant)-NL S550F
Protocol: as §5

[7] = Solubility of tracer in NanoBRET assay medium; assay type: physicochemical; conditions: dose-response top concentration 3 μM
SYK(S550Y)-NL [8] = molecular target: T5, SYK(S550Y)-NL; experiment: NanoBRET assay in digitonin permeabilized HEK293 cells, SYK(S550Y)-NL; assay type: cell-based; conditions: relative to MRL-SYKi (20 μM) treated cells, single experiment, read-out: EC50 of tracer, SYK(variant)-NL S550Y
Protocol: as §5

Structure (SMILES): COc1cc(Nc2ncc(F)c(Nc3ccc4c(n3)NC(=O)C(C)(C)O4)n2)cc(OC)c1OC [Tracer R406]
S550Y phosphorylation levels [1]: decrease S550Y phosphorylation levels

Structure (SMILES): c1cn2cc(-c3ccc4cn[nH]c4c3)nc(Nc3ccc(N4CCOCC4)cc3)c2n1 [Entospletinib]
Kd (TNK1): < 100 nM

Structure (SMILES): CCS(=O)(=O)N1CCN(c2ccc(Nc3ncc(C(N)=O)c(NC4CC4)n3)cc2)CC1 [Cerdulatinib]
IC50 (SYK(S550F)-NL [2]; intact HEK293 cells, 125 nM tracer 8, average of triplicate ± SEM, read-out: SYK(S550F) IC50): 170 ± 21 nM
IC50 (JAK1): 12 nM
IC50 (SYK(P342T)-NL [3]; intact HEK293 cells, 125 nM tracer 8, average of triplicate ± SEM, read-out: SYK(P342T) IC50): 360 ± 36 nM

EC50 (SYK(S550F)-NL [2]; intact cells, ± 10 μM MRL-SYKi, single experiment, read-out: cellular EC50 of the tracer, SYK(S550F)-NL): 273 nM
EC50 (SYK(A353T)-NL): 24 nM
BRET signal (background subtracted) (SYK(WT)-NL; C-terminal NL fusion, tracer 0.5, 1, 2 μM): approximately 15 mBU
EC50 (SYK(WT)-NL; relative to MRL-SYKi (20 μM) treated cells, single experiment, read-out: EC50 of tracer, SYK(variant)-NL WT): 39 nM
EC50 (SYK(S550Y)-NL [4]): 159 nM
IC50 (SYK; Km value for ATP, 9-pt dose-response): 110 nM
decrease in potency compared to the parent inhibitor MRL-SYKi (SYK; ratio of enzymatic IC50): 3.6 fold
effect on SYK(WT) catalytic activity (SYK(WT)): inhibits SYK(WT) catalytic activity
EC50 (SYK(P342T)-NL [5]): 9 nM
EC50 (SYK(M450I)-NL): 65 nM
EC50 (SYK(S550F)-NL [6]): 7 nM
solubility [7]: solubility issues at >3 μM
EC50 (SYK(P342T)-NL [3]; intact cells, ± 10 μM MRL-SYKi, single experiment, read-out: cellular EC50 of the tracer, SYK(P342T)-NL): 280 nM
EC50 (SYK(S550Y)-NL [8]): 8 nM
Structure (SMILES): Cc1cc(Nc2nccc(C)n2)cc(-c2cnc([C@@]3(O)CC[C@H](C(=O)NCCCNC(=O)CCc4ccc5n4[B-](F)(F)[N+]4=C(c6ccc[nH]6)C=CC4=C5)C(C)(C)C3)s2)c1 [Tracer 8]
